Reference: ChEMBL document CHEMBL5104180, “Design, Synthesis, and Evaluation of New Sugar-Substituted Imidazole Derivatives as Selective c-MYC Transcription Repressors Targeting the Promoter G-Quadruplex” (J Med Chem, 2022)
Calls of active or inactive are those of the source. The calls are words filed in the database; no cut-off is given here.

Tests used:
MDA-MB-231 [1] = experiment: Inhibition of colony formation in human MDA-MB-231 cells at 5 uM assessed as reduction in colony formation incubated for 10 days and subsequent media replacement with compound for every 2 days by crystal violet staining based assay; format: functional; conditions: MDA-MB-231, 240 h, time 10 day
RNA = experiment: Binding affinity to NRAS RNA mutant (unknown origin) assessed as binding constant by SPR analysis
HBL-100 = experiment: Cytotoxicity against human HBL-100 cells measured after 48 hrs; format: toxicity, cell-based; conditions: hbl-100, 48 h
[2] = Toxicity in BALB/c-nu/nu mouse xenografted with human MDA-MB-231 cells assessed as effect on anatomized lung viscera at 2.5 mg/kg, ip measured after 24 hrs; format: organism-based; conditions: in vivo
MDA-MB-231 [3] = experiment: Induction of cell cycle arrest in human MDA-MB-231 cells assessed as accumulation at sub G0 phase at 5 uM after 24 hrs by propidium iodide staining based flow cytometric analysis; format: functional
Quadruplex DNA [4] = experiment: Stabilization of c-MYC G4 quadruplex DNA Pu22 (unknown origin) assessed as change in melting temperature at 2 uM by CD spectroscopy; format: nucleic-acid assay
Quadruplex DNA [5] = experiment: Binding affinity to 5' FAM-labeled c-MYC G4 quadruplex DNA Pu22 (unknown origin) by fluorescence quench assay; format: nucleic-acid assay
Quadruplex DNA [6] = experiment: Inhibition of c-MYC G4 quadruplex DNA in HEK293T cells co-transfected with Renilla and firefly luciferase assessed as decrease in relative luciferase at 2.5 to 5 uM measured after 24 hrs by dual luciferase reporter assay; format: cell-based; conditions: Homo sapiens, dose 2.5-5 µM
[7] = system: NM23-H2/c-MYC G4 quadruplex DNA (Homo sapiens); experiment: Disruption of NM23-H2/c-MYC G4 quadruplex DNA interaction in MDA-MB-231 cells; format: cell-based
MDA-MB-231 [8] = experiment: Cytotoxicity against human MDA-MB-231 cells measured after 48 hrs; format: functional, cell-based
[9] = system: BLM/c-MYC G4 quadruplex DNA; experiment: Disruption of BLM/c-MYC G4 quadruplex DNA (unknown origin) interaction incubated for 1 hrs by ELISA; format: protein assay
[10] = Toxicity in BALB/c-nu/nu mouse xenografted with human MDA-MB-231 cells assessed as effect on anatomized kidney viscera at 2.5 mg/kg, ip measured after 24 hrs; format: organism-based; conditions: in vivo
HepG2 [11] = experiment: Cytotoxicity against human HepG2 cells assessed as reduction in cell viability measured after 48 hrs by MTT assay; format: functional, cell-based; conditions: HepG2, 48 h
HepG2 [12] = experiment: Cytotoxicity against human HepG2 cells measured after 48 hrs; format: functional, cell-based
MDA-MB-231 [13] = experiment: Antitumor activity against human MDA-MB-231 cells xenografted in BALB/c-nu/nu mouse assessed as tumor growth inhibition at 2.5 mg/kg, ip measured for 24 days; format: functional; conditions: MDA-MB-231, 576 h, time 24 day, read-out: TGI
MDA-MB-231 [14] = experiment: Inhibition of colony formation in human MDA-MB-231 cells at 0.125 to 5 uM assessed as reduction in colony formation incubated for 10 days and subsequent media replacement with compound for every 2 days by crystal violet staining based assay; format: functional, cell-based; conditions: dose 0.125-5 µM, time 10.0 day
MDA-MB-231 [15] = experiment: Cytotoxicity against human MDA-MB-231 cells assessed as reduction in cell viability measured after 24 hrs; format: functional, cell-based
NCM460 = experiment: Cytotoxicity against human NCM460 cells measured after 48 hrs; format: toxicity, cell-based; conditions: ncm460, 48 h
Quadruplex DNA [16] = experiment: Binding affinity to 3' FAM-labeled c-MYC G4 quadruplex DNA Pu22 (unknown origin) by fluorescence quench assay; format: nucleic-acid assay
[17] = Binding affinity to G-rich HRAS DNA (unknown origin) assessed as binding constant by SPR analysis
MDA-MB-231 [18] = experiment: Antitumor activity against human MDA-MB-231 cells assessed as reduction in cell invasion measured after 24 hrs using crystal violet staining inverted microscope based transwell assay; format: functional; conditions: MDA-MB-231, 24 h
MDA-MB-231 [19] = experiment: Induction of apoptosis in human MDA-MB-231 cells assessed as early apoptosis at 5 uM measured after 24 hrs by AnnexinV/propidium iodide staining based flow cytometry; format: functional, cell-based
MDA-MB-231 [20] = experiment: Cytotoxicity against human MDA-MB-231 cells assessed as reduction in cell viability measured after 48 hrs by MTT assay; format: functional, cell-based; conditions: MDA-MB-231, 48 h
SiHa = experiment: Cytotoxicity against human SiHa cells measured after 48 hrs; format: functional, cell-based
Quadruplex DNA [21] = experiment: Binding affinity to c-MYC G4- quadruplex DNA Pu22 (unknown origin) assessed as binding constant by SPR analysis; format: nucleic-acid assay
[22] = system: DHX36/c-MYC G4 quadruplex DNA; experiment: Disruption of DHX36/c-MYC G4 quadruplex DNA (unknown origin) interaction incubated for 1 hrs by ELISA; format: protein assay
[23] = Toxicity in BALB/c-nu/nu mouse xenografted with human MDA-MB-231 cells assessed as effect on anatomized liver viscera at 2.5 mg/kg, ip measured after 24 hrs; format: organism-based; conditions: in vivo
[24] = Binding affinity to G-rich NRAS RNA (unknown origin) assessed as binding constant by SPR analysis
Quadruplex DNA [25] = experiment: Inhibition of c-MYC G4 quadruplex DNA in human MDA-MB-231 cells assessed as decrease in c-MYC immunoprecipitation at 1.25 to 5 uM measured after 24 hrs by chromatin immunoprecipitation assay; format: cell-based; conditions: dose 1.25-5 µM
[26] = Cytotoxicity against human HBL-100 cells assessed as reduction in cell viability measured after 48 hrs by MTT assay; format: toxicity, cell-based
MDA-MB-231 [27] = experiment: Downregulation of c-MYC expression in human MDA-MB-231 cells measured after 48 hrs by western blot analysis; format: functional, cell-based
MDA-MB-231 [28] = experiment: Antitumor activity against human MDA-MB-231 cells xenografted in BALB/c-nu/nu mouse assessed as decrease in c-MYC expression in tumor tissue; format: functional, cell-based
MDA-MB-231 [29] = experiment: Induction of cell cycle arrest in human MDA-MB-231 cells assessed as decrease in accumulation at G2/M phase at 5 uM after 24 hrs by propidium iodide staining based flow cytometric analysis; format: functional
[30] = Binding affinity to G-rich KRAS DNA (unknown origin) assessed as binding constant by SPR analysis
[31] = Toxicity in BALB/c-nu/nu mouse xenografted with human MDA-MB-231 cells assessed as change in body weight at 2.5 mg/kg, ip; format: organism-based; conditions: in vivo
Quadruplex DNA [32] = experiment: Inhibition of c-MYC G4 quadruplex DNA in HEK293T cells co-transfected with Renilla and firefly luciferase assessed as decrease in relative luciferase measured after 24 hrs by dual luciferase reporter assay; format: cell-based; conditions: Homo sapiens
[33] = Binding affinity to human G-rich Htg22 DNA assessed as binding constant by SPR analysis
MDA-MB-231 [34] = experiment: Anticancer activity against human MDA-MB-231 cells (OFP negative) expressing c-MYC G4 quadruplex DNA assessed as arrest of growth measured after 48 hrs by DAPI staining based orange fluorescent protein assay; format: functional, cell-based
[35] = Toxicity in BALB/c-nu/nu mouse xenografted with human MDA-MB-231 cells assessed as effect on anatomized heart viscera at 2.5 mg/kg, ip measured after 24 hrs; format: organism-based; conditions: in vivo
[36] = Toxicity in BALB/c-nu/nu mouse xenografted with human MDA-MB-231 cells assessed as effect on anatomized spleen viscera at 2.5 mg/kg, ip measured after 24 hrs; format: organism-based; conditions: in vivo
MDA-MB-231 [37] = experiment: Antitumor activity against human MDA-MB-231 cells xenografted in BALB/c-nu/nu mouse assessed as relative increment ratio at 2.5 mg/kg, ip measured for 24 days; format: functional; conditions: time 24 day
MDA-MB-231 [38] = experiment: Induction of apoptosis in human MDA-MB-231 cells assessed as necrosis at 5 uM measured after 24 hrs by AnnexinV/propidium iodide staining based flow cytometry; format: functional, cell-based
MDA-MB-231 [39] = experiment: Downregulation of c-MYC mRNA level in human MDA-MB-231 cells measured after 24 hrs by RT-PCR analysis; format: functional, cell-based
[40] = Toxicity in BALB/c-nu/nu mouse xenografted with human MDA-MB-231 cells assessed as side effects at 2.5 mg/kg, ip measured after 24 hrs; format: organism-based; conditions: in vivo
Quadruplex DNA [41] = experiment: Binding affinity to c-MYC G4 quadruplex DNA Pu22 (unknown origin) assessed as binding constant by SPR analysis; format: nucleic-acid assay
[42] = system: NM23-H2/c-MYC G4 quadruplex DNA; experiment: Disruption of NM23-H2/c-MYC G4 quadruplex DNA (unknown origin) interaction incubated for 1 hrs by ELISA; format: protein assay
MCF7 = experiment: Cytotoxicity against human MCF7 cells measured after 48 hrs; format: functional, cell-based
[43] = Binding affinity to Hairpin DNA (unknown origin) assessed as binding constant by SPR analysis
MDA-MB-231 [44] = experiment: Antitumor activity against human MDA-MB-231 cells xenografted in BALB/c-nu/nu mouse assessed as relative increment ratio at 1 mg/kg, ip measured for 24 days; format: functional; conditions: time 24 day
MDA-MB-231 [45] = experiment: Antitumor activity against human MDA-MB-231 cells xenografted in BALB/c-nu/nu mouse assessed as tumor growth inhibition at 1 mg/kg, ip measured for 24 days; format: functional; conditions: MDA-MB-231, 576 h, time 24 day, read-out: TGI

Question: With CCn1c2ccccc2c2cc(-c3nc(-c4ccc(N5CCN(C)CC5)cc4)c(-c4ccc(N5CCN(C)CC5)cc4)n3-c3ccc(OCCOCCOC4(C)O[C@H]5O[C@H](CO)[C@@H](O)[C@H](O)[C@H]5O4)cc3)ccc21 (single isomer, unassigned) as the compound, how does the inhibition at 5 µM (MDA-MB-231 [1]) read?
Answer: 100%

Question: And the Kd (RNA)?
Answer: > 20 µM

Question: And the Activity (HBL-100)?
Answer: Toxic

Question: And the Activity [2]?
Answer: Non-Toxic

Question: What about the inhibition at 5 µM (MDA-MB-231 [3]) of the same compound?
Answer: 20%

Question: What about the ΔTm (Quadruplex DNA [4]) of the same compound?
Answer: 20.3 °C

Question: And the Kd (Quadruplex DNA [5])?
Answer: 0.56 µM

Question: What about the inhibition (Quadruplex DNA [6]) of the same compound?
Answer: Active

Question: And the Activity [7]?
Answer: Active

Question: And the Activity (MDA-MB-231 [8])?
Answer: Active

Question: What about the IC50 [9] of the same compound?
Answer: 2.3 µM

Question: What about the Activity [10] of the same compound?
Answer: Non-Toxic

Question: And the IC50 (HepG2 [11])?
Answer: 5 µM

Question: And the Activity (HepG2 [12])?
Answer: Active

Question: What about the inhibition in vivo at 2.5 mg/kg (MDA-MB-231 [13]) of the same compound?
Answer: 87.8%

Question: And the inhibition (MDA-MB-231 [14])?
Answer: Active

Question: What about the Activity (MDA-MB-231 [15]) of the same compound?
Answer: Active

Question: And the Activity (NCM460)?
Answer: Toxic

Question: And the Kd (Quadruplex DNA [16])?
Answer: 2.94 µM

Question: And the Kd [17]?
Answer: > 20 µM

Question: What about the IC50 (MDA-MB-231 [18]) of the same compound?
Answer: 7 µM

Question: What about the Activity (MDA-MB-231 [19]) of the same compound?
Answer: Active

Question: What about the IC50 (MDA-MB-231 [20]) of the same compound?
Answer: 3.9 µM

Question: What about the Activity (SiHa) of the same compound?
Answer: Active

Question: What about the Kd (Quadruplex DNA [21]) of the same compound?
Answer: 3.8 µM

Question: What about the IC50 [22] of the same compound?
Answer: 7 µM

Question: And the Activity [23]?
Answer: Non-Toxic

Question: And the Kd [24]?
Answer: > 20 µM

Question: What about the inhibition (Quadruplex DNA [25]) of the same compound?
Answer: Active

Question: And the IC50 at 48 h [26]?
Answer: > 100 µM

Question: What about the Activity (MDA-MB-231 [27]) of the same compound?
Answer: Active

Question: What about the Activity (MDA-MB-231 [28]) of the same compound?
Answer: Active

Question: What about the Activity (MDA-MB-231 [29]) of the same compound?
Answer: Active

Question: And the Kd [30]?
Answer: 16.4 µM

Question: And the Activity [31]?
Answer: Non-Toxic

Question: And the Activity (Quadruplex DNA [32])?
Answer: Active

Question: And the Kd [33]?
Answer: > 20 µM

Question: What about the Activity (MDA-MB-231 [34]) of the same compound?
Answer: Active

Question: What about the Activity [35] of the same compound?
Answer: Non-Toxic

Question: And the Activity [36]?
Answer: Non-Toxic

Question: What about the Activity (MDA-MB-231 [37]) of the same compound?
Answer: 89.9%

Question: And the Activity (MDA-MB-231 [38])?
Answer: Active

Question: What about the Activity (MDA-MB-231 [39]) of the same compound?
Answer: Active

Question: What about the Activity [40] of the same compound?
Answer: Non-Toxic

Question: What about the Kd (Quadruplex DNA [41]) of the same compound?
Answer: > 20 µM

Question: What about the IC50 [42] of the same compound?
Answer: 0.16 µM

Question: What about the Activity (MCF7) of the same compound?
Answer: Active

Question: What about the Kd [43] of the same compound?
Answer: > 20 µM

Question: Which Activity (MDA-MB-231 [44]) does the source give for COc1cccc2c1C(=O)c1c(O)c3c(c(O)c1C2=O)C[C@@](O)(C(=O)CO)C[C@@H]3O[C@H]1C[C@H](N)[C@H](O)[C@H](C)O1 [DOXORUBICIN] here?
Answer: 85.4%

Question: What about the inhibition in vivo at 1 mg/kg (MDA-MB-231 [45]) of the same compound?
Answer: 80.2%
